According to the NIST ThermoML archive (doi:10.1016/j.jct.2007.05.011):
± gives the expanded uncertainty stated by the source.

How the values were obtained:
[1] = xn = mol fraction of the nth substance listed; conditions: 101 kPa, Liquid, x1 = 1; for mass density: Vibrating tube method
[2] = 101 kPa, Liquid; for mass density: Vibrating tube method

CCO [ethanol] + NCCO.O=CO
[1]
Conditions	mass density [kg/m3]	speed of sound [m/s]
288.15 K	794.444 ± 30	1178.2 ± 6.3
290.65 K	792.305 ± 30	1169.1 ± 6.3
293.15 K	790.158 ± 30	1160.3 ± 6.3
295.65 K	788.027 ± 30	1151.7 ± 6.2
298.15 K	785.89 ± 30	1143.1 ± 6.2
300.65 K	783.729 ± 30	1134.6 ± 6.2
303.15 K	781.591 ± 30	1126.2 ± 6.1
305.65 K	779.402 ± 30	1117.8 ± 6.1
308.15 K	777.238 ± 30	1109.4 ± 6.1
310.65 K	775.055 ± 30	1101 ± 6
313.15 K	772.846 ± 30	1092.7 ± 6
315.65 K	770.625 ± 30	1084.3 ± 6
318.15 K	768.482 ± 30	1075.9 ± 5.9
320.65 K	766.198 ± 30	1067.5 ± 5.9
323.15 K	764.019 ± 30	1058.8 ± 5.9

CO [methanol] + NCCO.O=CO
[1]
Conditions	mass density [kg/m3]	speed of sound [m/s]
288.15 K	795.775 ± 30	1134.5 ± 6.2
290.65 K	793.495 ± 30	1126.2 ± 6.1
293.15 K	791.149 ± 30	1118 ± 6.1
295.65 K	788.811 ± 30	1109.8 ± 6.1
298.15 K	786.463 ± 30	1101.6 ± 6
300.65 K	784.102 ± 30	1093.4 ± 6
303.15 K	781.764 ± 30	1085.5 ± 6
305.65 K	779.385 ± 30	1077.3 ± 5.9
308.15 K	777.026 ± 30	1069.2 ± 5.9
310.65 K	774.659 ± 30	1061.1 ± 5.9
313.15 K	772.261 ± 30	1052.9 ± 5.8
315.65 K	769.86 ± 30	1044.9 ± 5.8
318.15 K	767.541 ± 30	1036.7 ± 5.8
320.65 K	765.074 ± 30	1028.6 ± 5.8
323.15 K	762.738 ± 30	1020.5 ± 5.7

O [water] + NCCO.O=CO
[1]
Conditions	mass density [kg/m3]	speed of sound [m/s]
290.65 K	998.68 ± 30	1474.7 ± 7.5
295.65 K	997.65 ± 30	1489.9 ± 7.6
300.65 K	996.37 ± 30	1503.4 ± 7.6
305.65 K	994.86 ± 30	1515.1 ± 7.7
310.65 K	993.15 ± 30	1525 ± 7.7
313.15 K	–	1529.3 ± 7.7
315.65 K	991.24 ± 30	1533.2 ± 7.7
318.15 K	–	1536.6 ± 7.8
320.65 K	989.15 ± 30	1539.6 ± 7.8
323.15 K	988.04 ± 30	1542.1 ± 7.8

CO [methanol]
[2]
Conditions	mass density [kg/m3]	speed of sound [m/s]
288.15 K	795.775 ± 30	1134.5 ± 6.2
290.65 K	793.495 ± 30	1126.2 ± 6.1
293.15 K	791.149 ± 30	1118 ± 6.1
295.65 K	788.811 ± 30	1109.8 ± 6.1
298.15 K	786.463 ± 30	1101.6 ± 6
300.65 K	784.102 ± 30	1093.4 ± 6
303.15 K	781.764 ± 30	1085.5 ± 6
305.65 K	779.385 ± 30	1077.3 ± 5.9
308.15 K	777.026 ± 30	1069.2 ± 5.9
310.65 K	774.659 ± 30	1061.1 ± 5.9
313.15 K	772.261 ± 30	1052.9 ± 5.8
315.65 K	769.86 ± 30	1044.9 ± 5.8
318.15 K	767.541 ± 30	1036.7 ± 5.8
320.65 K	765.074 ± 30	1028.6 ± 5.8
323.15 K	762.738 ± 30	1020.5 ± 5.7

CCO [ethanol]
[2]
Conditions	mass density [kg/m3]	speed of sound [m/s]
288.15 K	794.444 ± 30	1178.2 ± 6.3
290.65 K	792.305 ± 30	1169.1 ± 6.3
293.15 K	790.158 ± 30	1160.3 ± 6.3
295.65 K	788.027 ± 30	1151.7 ± 6.2
298.15 K	785.89 ± 30	1143.1 ± 6.2
300.65 K	783.729 ± 30	1134.6 ± 6.2
303.15 K	781.591 ± 30	1126.2 ± 6.1
305.65 K	779.402 ± 30	1117.8 ± 6.1
308.15 K	777.238 ± 30	1109.4 ± 6.1
310.65 K	775.055 ± 30	1101 ± 6
313.15 K	772.846 ± 30	1092.7 ± 6
315.65 K	770.625 ± 30	1084.3 ± 6
318.15 K	768.482 ± 30	1075.9 ± 5.9
320.65 K	766.198 ± 30	1067.5 ± 5.9
323.15 K	764.019 ± 30	1058.8 ± 5.9

NCCO.O=CO [2-hydroxyethylammonium formate]
[2]
Conditions	mass density [kg/m3]	speed of sound [m/s]
288.15 K	1183.57 ± 31	1733.9 ± 9.9
290.65 K	1181.81 ± 31	1727.4 ± 9.9
293.15 K	1180.04 ± 31	1721.3 ± 9.8
295.65 K	1178.27 ± 31	1715.1 ± 9.8
298.15 K	1176.49 ± 31	1709 ± 9.8
300.65 K	1174.71 ± 31	1702.9 ± 9.8
303.15 K	1172.94 ± 31	1696.8 ± 9.8
305.65 K	1171.16 ± 31	1690.8 ± 9.8
308.15 K	1169.39 ± 31	1684.8 ± 9.7
310.65 K	1167.62 ± 31	1678.7 ± 9.7
313.15 K	1165.84 ± 31	1672.7 ± 9.7
315.65 K	1164.06 ± 31	1666.7 ± 9.7
318.15 K	1162.29 ± 31	1660.8 ± 9.6
320.65 K	1160.51 ± 31	1654.8 ± 9.6
323.15 K	1158.73 ± 31	1648.9 ± 9.6
